From ChEMBL document CHEMBL4613212, “Insights of synthetic analogues of anti-leprosy agents” (Bioorg Med Chem, 2019)

Columns and labels:
[1] = system: Mycobacterium tuberculosis; test: Antimycobacterial activity against Mycobacterium tuberculosis H37Rv infected in CF-1 mouse assessed as change in survival time at 25 mg/kg administrated daily for 14 days with food relative to control; assay type: functional
[2] = system: Mycobacterium tuberculosis; test: Antimycobacterial activity against Mycobacterium tuberculosis H37Rv infected in CF-1 mouse assessed as change in survival time at 41 mg/kg administrated daily for 14 days with food relative to control; assay type: functional
[3] = system: Mycobacterium tuberculosis; test: Antimycobacterial activity against Mycobacterium tuberculosis H37Rv infected in CF-1 mouse assessed as change in survival time at 11 mg/kg administrated daily for 14 days with food relative to control; assay type: functional
[4] = system: Mycobacterium tuberculosis; test: Antitubercular activity against Mycobacterium tuberculosis H37Rv ATCC 27294 assessed as growth inhibition at 12.5 ug/ml by microplate alamar blue assay relative to control; assay type: functional
[5] = system: Mycobacterium tuberculosis; test: Antitubercular activity against Mycobacterium tuberculosis H37Rv ATCC 27294 assessed as inhibition of [3H]-thymidine incorporation relative to control; assay type: functional
[6] = Selectivity index, ratio of IC50 for African green monkey Vero cells to MIC for antitubercular activity against Mycobacterium tuberculosis H37Rv; assay type: toxicity; conditions: vero
[7] = system: Vero; test: Cytotoxicity against African green monkey Vero cells incubated for 72 hrs by MTT assay; assay type: cell-based, Chlorocebus sabaeus
[8] = system: Mycobacterium tuberculosis; test: Antimycobacterial activity against Mycobacterium tuberculosis H37Rv infected in CF-1 mouse assessed as change in survival time at 2 mg/kg administrated daily for 14 days with food relative to control; assay type: functional
[9] = system: Mycobacterium tuberculosis; test: Antimycobacterial activity against Mycobacterium tuberculosis H37Rv infected in CF-1 mouse assessed as change in survival time at 4 mg/kg administrated daily for 14 days with food relative to control; assay type: functional
[10] = system: Mycobacterium tuberculosis; test: Antimycobacterial activity against Mycobacterium tuberculosis H37Rv infected in CF-1 mouse assessed as change in survival time at 850 mg/kg administrated daily for 14 days with food relative to control; assay type: functional
[11] = system: Mycobacterium tuberculosis; test: Antimycobacterial activity against Mycobacterium tuberculosis H37Rv infected in CF-1 mouse assessed as change in survival time at 6 mg/kg administrated daily for 14 days with food relative to control; assay type: functional

Work on `c1ccc(/N=N/c2ccc(NCCCN3CCCCC3)c3c2CCCC3)cc1` yielded an MST [1] of 37 days, an MST [2] of 50 days and an MST [3] of 13 days.
In the case of `Clc1nc(-c2ccccc2)c2ncn(Cc3ccccc3)c2n1`, the inhibition at 12.5 µg/mL [4] is reported as greater than 90%, the “inhibition (INH)” value [5] is reported as 76% and the “Selectivity Index” value [6] is reported as “Nd(Insoluble)”. For the same molecule, the IC50 [7] was “Nd(Insoluble)”.
`Nc1ccc(C(=O)O)c(O)c1` [AMINOSALICYLIC ACID] showed an MST [8] of 17 days, an MST [9] of 26 days and an MST [10] of 25 days. The MST [11] was 52 days.
